The text below walks through data of ChEMBL document CHEMBL1151094, “Benzenepropanoic acids containing chromanone or naphthalenone moieties are potent and orally active leukotriene B4 antagonists” (Bioorg Med Chem Lett, 1994).

One assay relates to Cavia porcellus. As to the kind of experiment: Percent of control LTB4 -induced bronchoconstriction in guinea pigs before 20 hours pretreatment at 1.0 mg/kg. The assay is classed as functional.
The target in assay [1] is T1, Leukotriene B4 receptor (Homo sapiens, UniProt Q9NPC1+Q15722). As to the kind of experiment: Inhibition of LTB4 -induced bronchoconstriction in guinea pigs following 0.1 mg/kg prior to challenge. The assay is classed as functional, organism-based. Set-up: dose 0.1 mg/kg; scale not given: the % may be the effect or the level left. Particulars: Cavia porcellus; target entry is the homologue from another species; at 0.1 mg/kg.

For assay [2], the target named is T1, Leukotriene B4 receptor. The assay can be described thus: Inhibition of leukotriene B4 (LTB4) binding to its receptor on intact human neutrophils.

T1 sequence (Q15722 whole entry, looked up): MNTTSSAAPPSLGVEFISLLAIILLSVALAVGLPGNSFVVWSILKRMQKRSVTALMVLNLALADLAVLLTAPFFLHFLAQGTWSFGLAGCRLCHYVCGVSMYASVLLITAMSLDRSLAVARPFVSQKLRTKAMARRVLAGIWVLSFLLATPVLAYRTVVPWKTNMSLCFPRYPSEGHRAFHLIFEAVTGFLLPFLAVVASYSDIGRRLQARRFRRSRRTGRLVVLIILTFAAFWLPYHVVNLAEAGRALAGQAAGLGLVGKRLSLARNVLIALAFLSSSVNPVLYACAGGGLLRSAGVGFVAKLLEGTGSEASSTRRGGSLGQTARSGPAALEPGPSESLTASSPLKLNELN
T1 sequence (Q9NPC1 whole entry, looked up): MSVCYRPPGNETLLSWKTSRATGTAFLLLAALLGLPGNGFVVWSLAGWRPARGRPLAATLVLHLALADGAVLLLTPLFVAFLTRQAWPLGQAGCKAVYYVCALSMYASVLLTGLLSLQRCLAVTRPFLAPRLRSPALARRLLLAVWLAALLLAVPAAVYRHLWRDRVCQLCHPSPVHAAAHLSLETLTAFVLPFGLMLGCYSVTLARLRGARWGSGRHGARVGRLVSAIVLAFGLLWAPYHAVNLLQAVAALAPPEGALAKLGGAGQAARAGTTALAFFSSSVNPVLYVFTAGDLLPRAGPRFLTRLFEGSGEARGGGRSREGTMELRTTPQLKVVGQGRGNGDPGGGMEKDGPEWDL

Turning to `CCCc1c(OCCCOc2ccc(-c3cscn3)c(OC)c2CC2CC2)ccc2c1OC(C(=O)O)CC2` (configuration not stated), in the assay with Cavia porcellus, the Control stood at 36%. On to `CCCc1c(OCCCCCCc2cccc(OCCCCCCCC(=O)O)c2CCC(=O)O)ccc2c1OCCC2=O`, for which, in the assay with Cavia porcellus, the Control came to 27%. On Leukotriene B4 receptor [1], `COc1ccc(/C=C/CCCCOc2cccc(OCCCCC(=O)O)c2CCC(=O)O)cc1` came in with a Control of 101%. On the same count and under the same terms, for `CCCc1c(OCCCOc2ccc(C(C)=O)c(OC)c2CCC)ccc2c1OC(C(=O)O)CC2` (racemic) the value was 91%. With `CCCc1c(OCCCCCCc2cccc(OCCCC(=O)O)c2CCC(=O)O)ccc2c1OCCC2=O`, the Control in the assay with Cavia porcellus worked out at 20%. The same measure, in the same setting: for `CCCc1c(OCCCCCCc2cccc(OCCCCCCC(=O)O)c2CCC(=O)O)ccc2c1OCCC2=O` the value was 73%; for `CCCc1c(OCCCCCCc2cccc(OCCCCCCCCC(=O)O)c2CCC(=O)O)ccc2c1OCCC2=O`, 24%. Still for that read-out and setting: to `CC(C)(CCCCOc1cc(-c2ccccc2)cc(-c2ccccc2)n1)c1nnn[nH]1` belongs 15%. On Leukotriene B4 receptor [2], `CCCc1c(OCCCCCOc2cc3c(cc2C(C)=O)CCC(C(=O)O)O3)ccc(C(C)=O)c1O` (racemic) [ABLUKAST] came in with an inhibition constant (Ki) of 320 nM.

Take `CCCc1c(OCCCCCCc2cccc(OCCCCCC(=O)O)c2CCC(=O)O)ccc2c1CCCC2=O`: in the assay on Cavia porcellus, the Control amounted to 25%. As for `CCCc1c(OCCCCCCc2cccc(OCCCCC(=O)O)c2CCC(=O)O)ccc2c1OCCC2=O`, in the assay on Cavia porcellus, the Control turned out to be 26%. In turn, `COc1cc(C(=O)N(C(C)C)C(C)C)ccc1OCCCCCOc1ccc(C(=N)N)cc1.O=C(O)/C=C\C(=O)O` [MOXILUBANT MALEATE] returned a Control at Leukotriene B4 receptor [1] of 80%. This compound gave an inhibition constant (Ki) on Leukotriene B4 receptor [2] of 1 nM. For `CCCc1c(OCCCCCCc2ccc(OCCCC(=O)O)cc2CCC(=O)O)ccc2c1OCCC2=O`, the Control in the assay on Cavia porcellus came out at 45%. On Leukotriene B4 receptor [1], `COc1ccc(/C=C/CCCCOc2ccc(C(=O)c3cccc(C(=O)O)c3)cc2CCC(=O)O)cc1` came in with a Control of 88%. This compound gave a Ki at Leukotriene B4 receptor [2] of 11 nM. For the compound `CCCc1c(OCCCCCCc2cccc(OCCCC(=O)O)c2CCC(=O)O)ccc2c1CCCC2=O`, in the assay on Cavia porcellus, the Control worked out at 19%.

In general, Ki refers to a measure of affinity in units of concentration, obtained from inhibition or displacement.
